Test results from US20030104507A1, “Method for detection of ATP” (priority 2001, published 2003).

Key:
[1] = biological target: native firefly luciferase (Photinus pyralis, UniProt P08659); conditions: cited from earlier work
[2] = tested on: ATPase activity endogenous to L929 cell lysate; assay: Detergent inhibition of ATPase endogenous to L929 cell lysate (ATP remaining by luciferase luminescence, 22° C.); type: biochemical; set-up: key to Relative ATPase Activity, slope det/slope lysate: slope with detergent / slope without; ≥1.0 = 100% activity, 0.5 = 50%
How it was run: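 L929 lysate (1.5×10^5 cells/ml, four freeze–thaw cycles) held with detergent at final 1.0, 0.5, 0.1 or 0.05% at 22° C; remaining ATP read over time with luciferase-luciferin reagent (100 μM luciferin, 10 mM MgSO4, pH 7.5). Relative ATPase activity = slope of log % ATP remaining vs time with detergent ÷ slope for lysate-only control.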

[3] = Example 2, 0.02% detergent, 5 min
[4] = Example 2, 0.02% detergent, 75 min
[5] = Example 2, 0.02% detergent, 169 min
[6] = Example 2, 0.02% detergent, 222 min
[7] = Example 2, 0.02% detergent, 260 min
[8] = 0.50 percent detergent, second 0.50 line of DTAB (assayed on two days)
[9] = Example 2, 0.5% detergent, 5 min
[10] = Example 2, 0.5% detergent, 75 min
[11] = Example 2, 0.5% detergent, 169 min
[12] = Example 2, 0.5% detergent, 222 min
[13] = Example 2, 0.5% detergent, 260 min

Sequence of native firefly luciferase (P08659 whole entry): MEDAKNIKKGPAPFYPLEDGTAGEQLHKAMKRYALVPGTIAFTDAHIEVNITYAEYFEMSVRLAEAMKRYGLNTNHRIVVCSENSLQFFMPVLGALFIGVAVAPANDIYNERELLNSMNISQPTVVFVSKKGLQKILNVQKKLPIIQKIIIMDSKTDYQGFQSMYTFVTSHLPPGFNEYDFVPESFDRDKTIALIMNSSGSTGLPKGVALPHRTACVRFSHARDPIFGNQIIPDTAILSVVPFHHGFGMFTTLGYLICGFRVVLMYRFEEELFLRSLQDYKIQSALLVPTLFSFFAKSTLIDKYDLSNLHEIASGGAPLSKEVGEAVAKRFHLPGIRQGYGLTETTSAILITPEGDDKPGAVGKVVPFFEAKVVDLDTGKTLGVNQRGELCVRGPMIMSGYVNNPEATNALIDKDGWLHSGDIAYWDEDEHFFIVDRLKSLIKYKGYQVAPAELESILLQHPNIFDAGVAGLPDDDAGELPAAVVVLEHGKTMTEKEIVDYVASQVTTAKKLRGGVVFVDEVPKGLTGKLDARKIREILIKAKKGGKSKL

Structure (SMILES): CCCCCCCCCCCCCCCC[N+](C)(C)C.[Br-] [CTAB, Cetyltrimethylammonium bromide]
- effect on native firefly luciferase [1]: inactivated
- Relative ATPase Activity, slope det/slope lysate ([2]; 0.02 percent detergent): 0.718
- Slope (log percent ATP remaining vs time in minutes) ([2]; 0.02 percent detergent): −0.0046
- Average Relative Light Unit Values ([2]; 0.05% detergent, 5 min): 6525.51 rlu
- Percent ATP Remaining ([2]; 0.05% detergent, 5 min): 100%
- Average Relative Light Unit Values ([2]; 0.05% detergent, 75 min): 4029.32 rlu
- Percent ATP Remaining ([2]; 0.05% detergent, 75 min): 61.7%
- Average Relative Light Unit Values ([2]; 0.05% detergent, 169 min): 2093.80 rlu
- Percent ATP Remaining ([2]; 0.05% detergent, 169 min): 32.1%
- Average Relative Light Unit Values ([2]; 0.05% detergent, 222 min): 1437.67 rlu
- Percent ATP Remaining ([2]; 0.05% detergent, 222 min): 22.0%
- Average Relative Light Unit Values ([2]; 0.05% detergent, 260 min): 1002.72 rlu
- Percent ATP Remaining ([2]; 0.05% detergent, 260 min): 15.4%
- Relative ATPase Activity, slope det/slope lysate ([2]; 0.05 percent detergent): 0.561
- Slope (log percent ATP remaining vs time in minutes) ([2]; 0.05 percent detergent): −0.0031
- Average Relative Light Unit Values ([2]; 0.1% detergent, 5 min): 5104.82 rlu
- Percent ATP Remaining ([2]; 0.1% detergent, 5 min): 100%
- Average Relative Light Unit Values ([2]; 0.1% detergent, 75 min): 3607.65 rlu
- Percent ATP Remaining ([2]; 0.1% detergent, 75 min): 70.7%
- Average Relative Light Unit Values ([2]; 0.1% detergent, 169 min): 1889.29 rlu
- Percent ATP Remaining ([2]; 0.1% detergent, 169 min): 37.0%
- Average Relative Light Unit Values ([2]; 0.1% detergent, 222 min): 1248.51 rlu
- Percent ATP Remaining ([2]; 0.1% detergent, 222 min): 24.5%
- Relative ATPase Activity, slope det/slope lysate ([2]; 0.10 percent detergent): 0.507
- Slope (log percent ATP remaining vs time in minutes) ([2]; 0.10 percent detergent): −0.0028
- Average Relative Light Unit Values ([2]; 0.5% detergent, 5 min): 0.34 rlu
- Average Relative Light Unit Values ([2]; 0.5% detergent, 75 min): 0.28 rlu
- Average Relative Light Unit Values ([2]; 0.5% detergent, 169 min): 0.23 rlu
- Average Relative Light Unit Values ([2]; 0.5% detergent, 222 min): 0.27 rlu
- Average Relative Light Unit Values ([2]; 0.5% detergent, 260 min): 0.18 rlu
- Average Relative Light Unit Values ([2]; 1.0% detergent, 5 min): 0.09 rlu
- Average Relative Light Unit Values ([2]; 1.0% detergent, 75 min): 0.08 rlu
- Average Relative Light Unit Values ([2]; 1.0% detergent, 169 min): 0.07 rlu
- Average Relative Light Unit Values ([2]; 1.0% detergent, 222 min): 0.06 rlu
- Average Relative Light Unit Values ([2]; 1.0% detergent, 260 min): 0.07 rlu
- times more ATP present in the sample after four hours when the detergent was present than when it was absent ([2]; CTAB 0.05%): about four
- Percent ATP Remaining [2, 3]: 100.00%
- Percent ATP Remaining [2, 4]: 43.22%
- Percent ATP Remaining [2, 5]: 15.49%
- Percent ATP Remaining [2, 6]: 9.73%
- Percent ATP Remaining [2, 7]: 6.92%

Structure (SMILES): CCCCCCCCCCCC[N+](C)(C)C.[Br-] [DTAB, dodecyltrimethylammonium bromide]
- effect on native firefly luciferase [1]: inactivated
- Relative ATPase Activity, slope det/slope lysate ([2]; 0.02 percent detergent): 0.884
- Slope (log percent ATP remaining vs time in minutes) ([2]; 0.02 percent detergent): −0.0056
- Average Relative Light Unit Values ([2]; 0.05% detergent, 5 min): 6487.93 rlu
- Percent ATP Remaining ([2]; 0.05% detergent, 5 min): 100%
- Average Relative Light Unit Values ([2]; 0.05% detergent, 75 min): 3138.81 rlu
- Percent ATP Remaining ([2]; 0.05% detergent, 75 min): 48.4%
- Average Relative Light Unit Values ([2]; 0.05% detergent, 169 min): 1496.01 rlu
- Percent ATP Remaining ([2]; 0.05% detergent, 169 min): 23.1%
- Average Relative Light Unit Values ([2]; 0.05% detergent, 222 min): 943.40 rlu
- Percent ATP Remaining ([2]; 0.05% detergent, 222 min): 14.5%
- Average Relative Light Unit Values ([2]; 0.05% detergent, 260 min): 638.30 rlu
- Percent ATP Remaining ([2]; 0.05% detergent, 260 min): 9.8%
- Relative ATPase Activity, slope det/slope lysate ([2]; 0.05 percent detergent): 0.690
- Slope (log percent ATP remaining vs time in minutes) ([2]; 0.05 percent detergent): −0.0039
- Average Relative Light Unit Values ([2]; 0.1% detergent, 5 min): 6991.01 rlu
- Percent ATP Remaining ([2]; 0.1% detergent, 5 min): 100%
- Average Relative Light Unit Values ([2]; 0.1% detergent, 75 min): 4753.46 rlu
- Percent ATP Remaining ([2]; 0.1% detergent, 75 min): 68.0%
- Average Relative Light Unit Values ([2]; 0.1% detergent, 169 min): 2737.36 rlu
- Percent ATP Remaining ([2]; 0.1% detergent, 169 min): 39.2%
- Average Relative Light Unit Values ([2]; 0.1% detergent, 222 min): 1950.95 rlu
- Percent ATP Remaining ([2]; 0.1% detergent, 222 min): 27.9%
- Average Relative Light Unit Values ([2]; 0.1% detergent, 260 min): 1408.18 rlu
- Percent ATP Remaining ([2]; 0.1% detergent, 260 min): 20.1%
- Relative ATPase Activity, slope det/slope lysate ([2]; 0.10 percent detergent): 0.480
- Slope (log percent ATP remaining vs time in minutes) ([2]; 0.10 percent detergent): −0.0027
- Percent ATP Remaining ([2]; 0.5% (1), 5 min): 100%
- Percent ATP Remaining ([2]; 0.5% (1), 75 min): 90.6%
- Percent ATP Remaining ([2]; 0.5% (1), 169 min): 88.0%
- Percent ATP Remaining ([2]; 0.5% (1), 222 min): 87.3%
- Percent ATP Remaining ([2]; 0.5% (1), 260 min): 80.2%
- Percent ATP Remaining ([2]; 0.5% (2), 5 min): 100%
- Percent ATP Remaining ([2]; 0.5% (2), 75 min): 95.8%
- Percent ATP Remaining ([2]; 0.5% (2), 169 min): 90.3%
- Percent ATP Remaining ([2]; 0.5% (2), 222 min): 88.0%
- Percent ATP Remaining ([2]; 0.5% (2), 260 min): 85.0%
- Average Relative Light Unit Values ([2]; 0.5% (day 1), 5 min): 5630.61 rlu
- Average Relative Light Unit Values ([2]; 0.5% (day 1), 75 min): 5100.09 rlu
- Average Relative Light Unit Values ([2]; 0.5% (day 1), 169 min): 4957.48 rlu
- Average Relative Light Unit Values ([2]; 0.5% (day 1), 222 min): 4916.46 rlu
- Average Relative Light Unit Values ([2]; 0.5% (day 1), 260 min): 4515.20 rlu
- Average Relative Light Unit Values ([2]; 0.5% (day 2), 5 min): 6617.08 rlu
- Average Relative Light Unit Values ([2]; 0.5% (day 2), 75 min): 6341.09 rlu
- Average Relative Light Unit Values ([2]; 0.5% (day 2), 169 min): 5977.33 rlu
- Average Relative Light Unit Values ([2]; 0.5% (day 2), 222 min): 5824.18 rlu
- Average Relative Light Unit Values ([2]; 0.5% (day 2), 260 min): 5622.12 rlu
- Relative ATPase Activity, slope det/slope lysate ([2]; 0.50 percent detergent): 0.055
- Slope (log percent ATP remaining vs time in minutes) ([2]; 0.50 percent detergent): −0.0003
- Relative ATPase Activity, slope det/slope lysate [2, 8]: 0.048
- Slope (log percent ATP remaining vs time in minutes) [2, 8]: −0.0003
- Average Relative Light Unit Values ([2]; 1.0% detergent, 5 min): 800.61 rlu
- Percent ATP Remaining ([2]; 1.0% detergent, 5 min): 100%
- Average Relative Light Unit Values ([2]; 1.0% detergent, 75 min): 693.13 rlu
- Percent ATP Remaining ([2]; 1.0% detergent, 75 min): 86.6%
- Average Relative Light Unit Values ([2]; 1.0% detergent, 169 min): 649.41 rlu
- Percent ATP Remaining ([2]; 1.0% detergent, 169 min): 81.1%
- Average Relative Light Unit Values ([2]; 1.0% detergent, 222 min): 671.03 rlu
- Percent ATP Remaining ([2]; 1.0% detergent, 222 min): 83.8%
- Average Relative Light Unit Values ([2]; 1.0% detergent, 260 min): 645.40 rlu
- Percent ATP Remaining ([2]; 1.0% detergent, 260 min): 80.6%
- Relative ATPase Activity, slope det/slope lysate ([2]; 1.00 percent detergent): 0.057
- Slope (log percent ATP remaining vs time in minutes) ([2]; 1.00 percent detergent): −0.0003
- Average Relative Light Unit Values [2, 3]: 5870.43 rlu
- Percent ATP Remaining [2, 3]: 100.00%
- Average Relative Light Unit Values [2, 4]: 1997.09 rlu
- Percent ATP Remaining [2, 4]: 34.02%
- Average Relative Light Unit Values [2, 5]: 435.05 rlu
- Percent ATP Remaining [2, 5]: 7.41%
- Average Relative Light Unit Values [2, 6]: 329.83 rlu
- Percent ATP Remaining [2, 6]: 5.62%
- Average Relative Light Unit Values [2, 7]: 227.72 rlu
- Percent ATP Remaining [2, 7]: 3.88%
- Average Relative Light Unit Values [2, 9]: 5189.8 rlu
- Percent ATP Remaining [2, 9]: 100.00%
- Average Relative Light Unit Values [2, 10]: 4564.65 rlu
- Percent ATP Remaining [2, 10]: 87.95%
- Average Relative Light Unit Values [2, 11]: 4111.89 rlu
- Percent ATP Remaining [2, 11]: 79.23%
- Average Relative Light Unit Values [2, 12]: 4230.51 rlu
- Percent ATP Remaining [2, 12]: 81.52%
- Average Relative Light Unit Values [2, 13]: 4267.32 rlu
- Percent ATP Remaining [2, 13]: 82.23%
- concentrations which resulted in a 25% or greater decrease in the relative ATPase activity ([2]; compared to reactions in the absence of detergent): ≥ 0.05%
